Consider 36 compounds from ChEMBL document CHEMBL4351009, “hERG optimizations of IMB1603, discovery of alternative benzothiazinones as new antitubercular agents” (Eur J Med Chem, 2019).

Values after ≈ are worked out from the molar mass of the structure shown.

Series [1] deals with Mycobacterium tuberculosis. Put plainly: Antimycobacterial activity against Mycobacterium tuberculosis H37Rv infected in BALB/c mouse assessed as reduction in colony forming unit in lung at 25 mg/kg, po administered once daily for 5 days a week for 3 weeks. In kind it is functional.
Series [2] concerns Mycobacterium tuberculosis. Put plainly: Antimycobacterial activity against Mycobacterium tuberculosis H37Rv ATCC 27294 assessed as reduction in bacterial cell viability incubated for 7 days by microplate alamar blue assay. To be noted: H37Rv ATCC 27294, 168 h. In kind it is functional. A general note: The colour change of resazurin is a common sign of viable cells or microbes.

The target of series [3] is hERG (KCNH2) (Homo sapiens, UniProt Q12809). Put plainly: Inhibition of human ERG transfected in HEK293 cells at 10 uM by whole cell patch clamp assay relative to control. Format: cell-based. The note with it: HEK293 cells transfected with human ERG.
Series [4] in a line: AUC (0 to t) in SPF ICR mouse at 25 mg/kg, po measured upto 24 hrs by HPLC analysis. More on the design: dose 25 mg/kg, time < 24 hr, route oral. In kind it is ADME, organism-based. The note with it: in vivo.
Series [5] can be described thus: Acute toxicity in ICR mouse assessed as mouse survival at 500 mg/kg, po observed continuously for 4 hrs and each hr for next 24 hrs and at 8 hrs interval for following 7 days. Format: organism-based. The note with it: in vivo.
Series [6] can be described thus: Tmax in SPF ICR mouse at 25 mg/kg, po measured upto 24 hrs by HPLC analysis. In kind it is ADME, organism-based. The note with it: in vivo.
A short description of series [7]: Half life in SPF ICR mouse at 25 mg/kg, po measured upto 24 hrs by HPLC analysis. Format: ADME, organism-based. The note with it: in vivo.
The nature of series [8]: Cmax in SPF ICR mouse at 25 mg/kg, po measured upto 24 hrs by HPLC analysis. In kind it is ADME, organism-based. More on the design: dose 25 mg/kg, route oral. The note with it: in vivo.

Chain of hERG (KCNH2) (Q12809 whole entry): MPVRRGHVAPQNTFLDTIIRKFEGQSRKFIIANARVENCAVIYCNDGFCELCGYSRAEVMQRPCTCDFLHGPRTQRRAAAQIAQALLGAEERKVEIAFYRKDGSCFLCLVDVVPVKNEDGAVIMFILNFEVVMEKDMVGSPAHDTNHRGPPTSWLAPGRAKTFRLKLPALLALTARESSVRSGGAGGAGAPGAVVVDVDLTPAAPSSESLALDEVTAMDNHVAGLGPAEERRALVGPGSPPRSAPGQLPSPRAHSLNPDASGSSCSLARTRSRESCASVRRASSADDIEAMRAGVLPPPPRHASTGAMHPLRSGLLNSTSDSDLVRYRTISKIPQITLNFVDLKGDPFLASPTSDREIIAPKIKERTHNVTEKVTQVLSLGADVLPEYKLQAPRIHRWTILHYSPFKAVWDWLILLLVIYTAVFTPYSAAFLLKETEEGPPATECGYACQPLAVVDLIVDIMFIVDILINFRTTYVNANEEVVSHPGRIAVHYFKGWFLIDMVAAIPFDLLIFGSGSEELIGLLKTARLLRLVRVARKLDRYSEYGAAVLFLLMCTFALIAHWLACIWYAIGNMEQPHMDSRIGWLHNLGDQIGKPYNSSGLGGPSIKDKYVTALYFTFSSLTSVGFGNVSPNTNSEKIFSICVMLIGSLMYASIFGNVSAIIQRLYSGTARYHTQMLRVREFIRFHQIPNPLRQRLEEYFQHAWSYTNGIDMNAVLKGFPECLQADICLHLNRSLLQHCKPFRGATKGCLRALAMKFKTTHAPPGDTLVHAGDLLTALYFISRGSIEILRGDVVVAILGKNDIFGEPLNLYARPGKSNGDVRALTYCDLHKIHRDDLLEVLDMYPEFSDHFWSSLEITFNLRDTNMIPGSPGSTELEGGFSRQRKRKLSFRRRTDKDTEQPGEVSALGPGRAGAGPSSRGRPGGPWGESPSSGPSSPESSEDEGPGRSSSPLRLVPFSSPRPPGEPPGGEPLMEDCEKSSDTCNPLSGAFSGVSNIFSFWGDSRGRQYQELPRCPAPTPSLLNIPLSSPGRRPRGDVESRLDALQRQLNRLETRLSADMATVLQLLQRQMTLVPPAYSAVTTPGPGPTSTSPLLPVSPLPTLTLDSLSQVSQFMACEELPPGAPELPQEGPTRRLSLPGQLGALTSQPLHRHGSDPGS

With `O=c1nc(N2CCC3(CCN(Cc4ccc(F)cc4)C3)CC2)sc2c([N+](=O)[O-])cc(C(F)(F)F)cc12`, in series [1], the Activity is given as 3.2 log10CFU. For the same compound, in series [2], the MIC was below 0.035 µM. The same compound gave an inhibition at 10 µM in series [3] of 95.7%.
In the case of `O=c1nc(N2CCC3(CCN(Cc4ccc(Br)cc4)CC3)CC2)sc2c([N+](=O)[O-])cc(C(F)(F)F)cc12`, in series [2], the MIC is below 0.035 µM. Also, 10 µM produced 97% inhibition in series [3].
Taken in the same sequence, the figures for `O=c1nc(N2CCC3(CCN(Cc4ccc(C(F)(F)F)cc4)CC3)CC2)sc2c([N+](=O)[O-])cc(C(F)(F)F)cc12` were below 0.035 µM and 94.6%.
Consider `O=c1nc(N2CC3CCC2CN3Cc2ccc(F)cc2)sc2c([N+](=O)[O-])cc(C(F)(F)F)cc12` (centres undefined), for which the area under the curve AUC(0-t) at 24 h in series [4] amounted to 3550 ng·h/mL. Also, the MIC in series [2] turned out to be 0.078 µM (≈ 0.0386 µg/mL). The Activity result in series [5] is “Non-Toxic”. The Tmax in series [6] was 15 min. This compound came in with an inhibition at 10 µM in series [3] of 34.9%. The compound also gave a half-life in series [7] of 75 min. The compound also showed a Cmax in series [8] of 3040 ng/mL.
For `O=c1nc(N2CCC3(CCN(CCc4ccc(F)cc4)C3)CC2)sc2c([N+](=O)[O-])cc(C(F)(F)F)cc12`, in series [2], the MIC came to 0.055 µM (≈ 0.0295 µg/mL). The same compound came in with an inhibition at 10 µM in series [3] of 92.7%.
In the same order, the values of `O=c1nc(N2CCC3(CCN(Cc4ccncc4)C3)CC2)sc2c([N+](=O)[O-])cc(C(F)(F)F)cc12` are 0.122 µM (≈ 0.0617 µg/mL) and 74.1%.
Taken in the same sequence, the figures for `O=c1nc(N2CCC3(CCN(Cc4cccc(F)c4F)C3)CC2)sc2c([N+](=O)[O-])cc(C(F)(F)F)cc12` were below 0.035 µM and 88.5%.
For `Cn1cccc1CN1CCC2(CCN(c3nc(=O)c4cc(C(F)(F)F)cc([N+](=O)[O-])c4s3)CC2)C1`, the MIC in series [2] was 0.479 µM (≈ 0.243 µg/mL).
For the compound `O=c1nc(N2CCC3(CCN(CCCc4ccc(F)cc4)C3)CC2)sc2c([N+](=O)[O-])cc(C(F)(F)F)cc12`, the minimal inhibitory concentration (MIC) in series [2] is below 0.035 µM. For the same compound, the inhibition at 10 µM in series [3] came to 85.8%.
In the same order, the values of `O=c1nc(N2CCC3(CCN(Cc4ccc([N+](=O)[O-])cc4)C3)CC2)sc2c([N+](=O)[O-])cc(C(F)(F)F)cc12` are below 0.035 µM and 94.1%.
Turning to `COc1ccc2[nH]cc(CN3CCC4(CCN(c5nc(=O)c6cc(C(F)(F)F)cc([N+](=O)[O-])c6s5)CC4)C3)c2c1`, the MIC in series [2] amounted to 1.48 µM (≈ 0.848 µg/mL).
As to `O=c1nc(N2CCC3(CCN(Cc4ccccc4F)C3)CC2)sc2c([N+](=O)[O-])cc(C(F)(F)F)cc12`, in series [2], the MIC is below 0.035 µM. The compound also came in with an inhibition at 10 µM in series [3] of 94.9%.
In the same order, the values of `N#Cc1ccc(CN2CCC3(CCN(c4nc(=O)c5cc(C(F)(F)F)cc([N+](=O)[O-])c5s4)CC3)C2)cc1` are below 0.035 µM and 90.6%.
Taken in the same sequence, the figures for `O=c1nc(N2CCC3(CCN(Cc4cc(C(F)(F)F)cc(C(F)(F)F)c4)C3)CC2)sc2c([N+](=O)[O-])cc(C(F)(F)F)cc12` were below 0.035 µM and 83.3%.
`O=c1nc(N2CCC3(CCN(Cc4cccnc4)C3)CC2)sc2c([N+](=O)[O-])cc(C(F)(F)F)cc12`: in series [2], the minimal inhibitory concentration (MIC) came to 0.235 µM (≈ 0.119 µg/mL).
`O=c1nc(N2CCC3(CCN(Cc4ccc([N+](=O)[O-])c(Br)c4)C3)CC2)sc2c([N+](=O)[O-])cc(C(F)(F)F)cc12`: in series [2], the MIC is below 0.035 µM. In series [3], this compound returned an inhibition at 10 µM of 88.6%.
In the case of `O=c1nc(N2CCC3(CCN(Cc4cccs4)C3)CC2)sc2c([N+](=O)[O-])cc(C(F)(F)F)cc12`, the MIC in series [2] is below 0.035 µM. Moreover, the inhibition at 10 µM in series [3] is 96.2%.
In turn, `O=c1nc(N2CCC3(CCN(c4ccc(F)cc4)C3)CC2)sc2c([N+](=O)[O-])cc(C(F)(F)F)cc12` returned an area under the curve AUC(0-t) at 24 h in series [4] of 5030 ng·h/mL. For the same compound, the minimal inhibitory concentration (MIC) in series [2] was below 0.035 µM. Also, in series [5], the Activity result is reported as “Non-Toxic”. In addition, in series [6], the time to peak (Tmax) is 30 min. In addition, the inhibition at 10 µM in series [3] came to 23%. In series [7], this compound had a half-life of 287 min. The Cmax in series [8] was 1610 ng/mL.
On to `CC(c1ccc(F)cc1)N1CCC2(CCN(c3nc(=O)c4cc(C(F)(F)F)cc([N+](=O)[O-])c4s3)CC2)CC1` (centres undefined), for which the minimum inhibitory concentration (MIC) in series [2] came to 0.107 µM (≈ 0.0589 µg/mL). This compound displayed an inhibition at 10 µM in series [3] of 74%.
In the same order, the values of `O=c1nc(N2CC3CC2CN3Cc2ccc(F)cc2)sc2c([N+](=O)[O-])cc(C(F)(F)F)cc12` (centres undefined) are below 0.035 µM and 94.3%.
In the same order, the values of `O=c1nc(N2CCC3(CCN(Cc4ccc5ccccc5c4)C3)CC2)sc2c([N+](=O)[O-])cc(C(F)(F)F)cc12` are below 0.035 µM and 78.1%.
In the same order, the values of `CC(c1ccc(Br)cc1)N1CCC2(CCN(c3nc(=O)c4cc(C(F)(F)F)cc([N+](=O)[O-])c4s3)CC2)CC1` (centres undefined) are below 0.035 µM and 77.2%.
Turning to `O=c1nc(N2CCC3(CCN(Cc4cccc5ccccc45)C3)CC2)sc2c([N+](=O)[O-])cc(C(F)(F)F)cc12`, in series [2], the MIC amounted to 0.055 µM (≈ 0.0305 µg/mL).
Regarding `CC(c1ccc(Cl)cc1)N1CCC2(CCN(c3nc(=O)c4cc(C(F)(F)F)cc([N+](=O)[O-])c4s3)CC2)CC1` (centres undefined), the MIC in series [2] was below 0.035 µM. The inhibition at 10 µM in series [3] came to 73.4%.
Regarding `O=c1nc(N2CC3CN(Cc4ccc(F)cc4)CC3C2)sc2c([N+](=O)[O-])cc(C(F)(F)F)cc12` (centres undefined), the MIC in series [2] was found to be 0.248 µM (≈ 0.123 µg/mL).
On to `O=c1nc(N2CCC3(CCN(Cc4ccc[nH]4)C3)CC2)sc2c([N+](=O)[O-])cc(C(F)(F)F)cc12`, for which, in series [2], the MIC is 1.58 µM (≈ 0.778 µg/mL).
`CCC(c1ccc(C(F)(F)F)cc1)N1CCC2(CCN(c3nc(=O)c4cc(C(F)(F)F)cc([N+](=O)[O-])c4s3)CC2)CC1` (centres undefined): the MIC in series [2] was below 0.035 µM. Moreover, in series [3], at 10 µM the inhibition was 69.7%.
In the case of `O=c1nc(N2CCC3(CCN(Cc4ccccn4)C3)CC2)sc2c([N+](=O)[O-])cc(C(F)(F)F)cc12`, the MIC in series [2] was 0.477 µM (≈ 0.241 µg/mL).
Regarding `O=c1nc(N2CCC3(CCN(Cc4ccc(OC(F)(F)F)cc4)C3)CC2)sc2c([N+](=O)[O-])cc(C(F)(F)F)cc12`, in series [2], the MIC was below 0.035 µM. Further, in series [3], 10 µM produced 90.2% inhibition.
Taken in the same sequence, the figures for `CC(c1ccc(C(F)(F)F)cc1)N1CCC2(CCN(c3nc(=O)c4cc(C(F)(F)F)cc([N+](=O)[O-])c4s3)CC2)CC1` (centres undefined) were below 0.035 µM and 72.9%.
In the same order, the values of `O=c1nc(N2CCC3(CCN(Cc4ccc(C(F)(F)F)cc4C(F)(F)F)C3)CC2)sc2c([N+](=O)[O-])cc(C(F)(F)F)cc12` are below 0.035 µM and 68.6%.
Taken in the same sequence, the figures for `O=c1nc(N2CCC3(CCN(Cc4ncco4)C3)CC2)sc2c([N+](=O)[O-])cc(C(F)(F)F)cc12` were 0.248 µM (≈ 0.123 µg/mL) and 53.2%.
As for `O=c1nc(N2CCN(C3CCN(Cc4ccc(F)cc4)CC3)CC2)sc2c([N+](=O)[O-])cc(C(F)(F)F)cc12`, the MIC in series [2] came out at 0.054 µM (≈ 0.0298 µg/mL). For the same compound, the inhibition at 10 µM in series [3] turned out to be 95.6%.
On to `NNC(=O)c1ccncc1` [ISONIAZID], for which, in series [2], the MIC amounted to 0.269 µM (≈ 0.0369 µg/mL).
Compound `O=c1nc(N2CCN(CC3CCCCC3)CC2)sc2c([N+](=O)[O-])cc(C(F)(F)F)cc12` [MACOZINONE] returned an exposure AUC(0-t) at 24 h in series [4] of 2480 ng·h/mL. Further, the MIC in series [2] is below 0.035 µM. The Activity result in series [5] is listed as “Non-Toxic”. The time of peak concentration (Tmax) in series [6] was 19.8 min. In series [3], this compound gave an inhibition at 10 µM of 41.6%. In series [7], this compound showed a half-life of 380 min. Moreover, in series [8], the Cmax was 1750 ng/mL.
On to `CO[C@H]1/C=C/O[C@@]2(C)Oc3c(C)c(O)c4c(O)c(c(/C=N/N5CCN(C)CC5)c(O)c4c3C2=O)NC(=O)/C(C)=C\C=C\[C@H](C)[C@H](O)[C@@H](C)[C@@H](O)[C@@H](C)[C@H](OC(C)=O)[C@@H]1C` [RIFAMPIN], for which the minimal inhibitory concentration (MIC) in series [2] was 0.164 µM (≈ 0.135 µg/mL).

For orientation: MIC means the smallest concentration in the dilution series that meets the test's criterion for growth inhibition. In general, inhibition refers to the drop in the measured response relative to a control, in per cent. One may read the AUC(0-t) as exposure summed from dosing to a finite time, without extrapolation to infinity. Read a high AUC(0-t) as more exposure. One may read the Tmax as the time at which the peak concentration occurs. The half-life is how long it takes for the measured level to halve. For orientation: Cmax means the highest concentration seen after dosing.
